# Measured values as given in patent publication US20070202577A1, “Method For The Production Of Hyperbranched Polysaccharide Fractions” (priority 2004, published 2007).
# Target: T1, α-amylase from porcine pancreas (Sus scrofa, UniProt P00690)
# T1 sequence (P00690 16-511): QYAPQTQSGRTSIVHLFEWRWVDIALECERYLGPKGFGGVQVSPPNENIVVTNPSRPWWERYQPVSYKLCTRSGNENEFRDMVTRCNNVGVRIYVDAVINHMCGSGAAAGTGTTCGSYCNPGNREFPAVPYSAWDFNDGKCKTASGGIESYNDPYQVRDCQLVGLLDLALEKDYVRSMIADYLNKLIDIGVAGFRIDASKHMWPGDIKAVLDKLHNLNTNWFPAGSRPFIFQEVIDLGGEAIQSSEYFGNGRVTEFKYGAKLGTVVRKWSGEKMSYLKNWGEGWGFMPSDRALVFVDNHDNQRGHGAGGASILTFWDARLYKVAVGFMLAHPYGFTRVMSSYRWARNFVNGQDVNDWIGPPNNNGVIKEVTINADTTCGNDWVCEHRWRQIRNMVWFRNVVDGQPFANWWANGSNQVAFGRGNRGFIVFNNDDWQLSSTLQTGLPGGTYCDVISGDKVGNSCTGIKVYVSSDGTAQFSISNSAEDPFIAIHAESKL
# Experimental: The solution was heated to 37.0° C., and 0.5 I.U./ml α-amylase from porcine pancreas (from Roche; AS, Art. No. 102 814) was added. Samples were taken after 1 and 3 hours, the enzyme was inactivated by heat, and the molecular weight of the remaining high molecular weight fraction was determined by HPGPC.
substance,measurement,setting,value
hydroxyethyl starch [Voluven],"rate of degradation with α-amylase, compared with the hyperbranched amylopectin fraction from example 7",,comparable
same,initial weight average molecular weight,pH 7.2,140 200 daltons
same,weight average molecular weight after hydrolysis for 1 hour,pH 7.2,54 700 daltons
same,weight average molecular weight after hydrolysis for 3 hours,pH 7.2,33 700 daltons
